How the values were obtained:
Type in all cases: physicochemical
[1] = Vapor sorption analysis (TA Instrument VTI-SA+)
Protocol: The vapor sorption experiments for Form B were performed using a TA Instrument VTI-SA+ Vapor Sorption Analyzer. Sample (˜10 mg) was placed in a previously cleaned and tarred platinum pan then loaded into the instrument chamber. Sample was dried at 60° C. until the loss rate of 0.005 wt %/min was obtained for 10 minutes. The sample was then held isothermally at 25° C. while the % RH of the system was stepped between 4, 5, 15, 25, 35, 45, 55, 65, 75, 85, 95, 85, 75, 65, 55, 45, 35, 25, 15, 5, 4% RH. Equilibration criteria was +/−0.01 wt % for 35 min with a maximum equilibration time of 600 min at each step.

[2] = Competitive slurry experiments in ethanol
[3] = Solid state stability in bio-relevant media; settings: pH 1 HCl 0.1 M, pH 3.05 citrate 50 mM, pH 7.4 phosphate 50 mM, Fassif pH 6.5, Fessif pH 5.0, 37° C., 200 rpm
Protocol: Form B was added to bio-relevant media (pH 1 HCl 0.1 M; pH 3.05 citrate 50 mM; pH 7.4 phosphate 50 mM; Fassif pH 6.5; Fessif pH 5.0) and solid state stability in the media was determined. Procedures are described in more detail as follows:
pH 1 HCl 0.1M: […] HCl was diluted to 100 mL with water. pH 1.02
pH 3.05 citrate 50 mM: 82 mL of 0.1 M citric acid and 18 mL of 0.1 M sodium citrate were mixed together. pH=3.07.
pH 7.4 phosphate 50 mM: 50 mL of 0.2 M KH2PO4 and 39.1 mL of 0.2 M NaOH were dissolved and diluted to 200 mL with water. pH 7.39.
Fassif pH 6.5: 23.4 mg of NaOH, 224.7 mg of NaH2PO4·2H2O and 304.3 mg of NaCl were dissolved and diluted to 50 mL with water. 33.6 mg of SIF powder was dissolved in 15 mL of FaSSIF buffer solution. The solution was kept stirring and equilibrated at ambient condition with light protection for 2 hours. pH=6.37.
Fessif pH 5.0: 202.6 mg of NaOH, 432.7 mg of acetic acid, and 591.3 mg of NaCl were dissolved and diluted to 50 mL with water. pH of the solution was 4.99. 168 mg of SIF powder was dissolved in 15 mL of FeSSIF buffer solution. The solution was kept stirring and equilibrated at ambient condition with light protection for 2 hours. pH=4.94.
30-50 mg of Form B was weighed into 12 mL sample vials and then 3 mL of test media was added respectively. The suspensions were kept shaking at 200 rpm under 37° C. for 24 hours. […]

[4] = Stability study of Form B (thermal and humidity treatments; HPLC purity, XRPD form)
Protocol: The stability study of Form B (before milling) was carried out at 80° C. for two weeks and at 40° C./75% RH for one month. Purity was determined by HPLC and stability was determined by XRPD. […] The stability of milled Form B was carried out as well under the same conditions. […] A purity decrease of 0.8% was detected for milled Form B after being treated at 80° C. for […].

[5] = Slurry conversion of Form A in anhydrous ethanol; settings: 60° C., 24 hours
Protocol: 3 g of Form A was slurried in 90 mL anhydrous ethanol at 60° C. for 24 hours.

Cc1ccc(F)c([C@@H]2Nc3[nH]c(=O)n(C4CCOCC4)c(=O)c3C[C@@H]2F)c1 [Form B, (6S,7S)-6-fluoro-7-(2-fluoro-5-methylphenyl)-3-(tetrahydro-2H-pyran-4-yl)-5,6,7,8-tetrahydropyrido[2,3-d]pyrimidine-2,4(1H,3H)-dione]
hygroscopicity by vapor sorption analysis [1]: non-hygroscopic | weight percent gain as measured by vapor sorption analyzer ([1]; up to 95% RH, 25° C.): less than 0.05% | relative stability versus Form A in competitive slurry ([2]; 10° C. and 60° C.): more stable compared to Form A | relative stability versus Form C in competitive slurry ([2]; 10° C. and 60° C.): more stable compared to Form C | relative stability versus Form E in competitive slurry ([2]; 22.5° C. and 60° C.): more stable compared to Form E | overall thermodynamic stability ranking compared to Forms A, C and E ([2]; temperature ranges covered in the experiments): thermodynamically most stable anhydrous form | solid form by XRPD after 24 hours in bio-relevant media [3]: remained as Form B | purity by HPLC after stability test ([4]; before milling, 40° C./75% RH for one month): 99.9% | purity by HPLC after stability test ([4]; before milling, 80° C. for two weeks): 99.9% | crystal form by XRPD after stability test ([4]; before milling, 80° C. for two weeks and 40° C./75% RH for one month): remained unchanged | crystal form by XRPD after thermal and humidity treatments ([4]; milled, 40° C./75% RH and 80° C.): remains unchanged | degradation after stability test ([4]; milled, 40° C./75% RH for four weeks): did not show any degradation | purity decrease after stability test ([4]; milled, 80° C. for four weeks): 0.8% | thermodynamic stability compared to Form A, from conversion of Form A to Form B [5]: superior thermodynamic stability

Reference: patent US20250034129A1, “CRYSTALLINE FORMS OF (6S,7S)-6-FLUORO-7-(2-FLUORO-5-METHYLPHENYL)-3-(TETRAHYDRO-2H-PYRAN-4-YL)-5,6,7,8-TETRAHYDROPYRIDO[2,3-d]PYRIMIDINE-2,4(1H,3H)-DIONE” (MYOKARDIA, INC., priority 2023, published 2025)
